The experiment concerns IL-2. Nature of the experiment: In vitro immune synapse system, immune adjuvant immunostimulation: IL-2 level. It counts as cell-based, pig. As to conditions: 2 μg/well poly IC, in comparison to IL-18 (0.1 ng/well); Treg/APC system; FIG. 5; P<0.05. Here is the method: In this Example, a commercial kit of porcine IL-2 and IL-10 was used for quantifying the IL-2 and IL-10 levels in the porcine cell supernatant. According to the steps of the specification provided in the kit, the standard liquid provided by the kit was diluted for later use, and a flow was described briefly below. Firstly, 100 μL of sample or diluted standard liquid was added into a 96-well plate and incubated for 1 hour. Next, 200 μL of biotinylated antibody reagent was added into the 96-well plate and incubated for another hour. […] Afterwards, 100 μL of stop solution was added to terminate the reaction in order to measure the absorbance. […]
Generally, the absorbance could be read by a commercial continuous spectrophotometer at a wavelength of 450/540 nm, and a standard curve was established by serially-diluted standard solution of various concentrations versus respective absorbances. Then, the cell cytokine concentration of each sample was calculated according to the regression equation of the standard curve, and a commercially statistical software (such as a SAS statistical program) was used to calculate significant difference between the means of all groups, as shown by the results of FIGS. 3A to 3B. […]

With poly-IC, the “IL-2 level in the immunological synapse” value was “significantly improve”.
